Measured values reported in ChEMBL document CHEMBL3885861, “Open TG-GATES”.

Species on record: Rattus norvegicus
Test: Open TG-GATES - Regimen: Daily Repeat
Assay type: toxicity, organism-based, Sprague-Dawley
Design: regimen Daily Repeat, gender Male, age 6 weeks
Conditions: in vivo, po, 300 mg/kg, route gavage, dose level High; for APTT / Bas / Eos / Fbg / Hb / Ht / Lym / MCH / MCHC / MCV / Mono / Neu / PT / Plat / RBC / Ret / WBC: tissue Blood; for KIDNEY_L / KIDNEY_R / KIDNEY_TOTAL: tissue Kidney; for LIVER: tissue Liver; for A/G / ALP / ALT / AST / BUN / CRE / Ca / Cl / DBIL / GLC / IP / K / LDH / Na / PL / RALB / TBIL / TC / TG / TP / gamma-GTP: tissue Plasma

## Cc1cccc(Nc2ccccc2C(=O)O)c1C [MEFENAMIC ACID]
72 h, time 3 day
  TERMINAL_BW: 221.3 g
  APTT: 18.9 s
  Bas: 0%
  Eos: 1%
  Fbg: 345 mg/dL
  Hb: 9.4 g/dL
  Ht: 28%
  Lym: 61.8%
  MCH: 21.6 pg
  MCHC: 33.5%
  MCV: 64.6 fL
  Mono: 3.8%
  Neu: 28.4%
  PT: 11.3 s
  Plat: 117.3 x10_4/uL
  RBC: 434.2 x10_4/ul
  Ret: 13.5%
  WBC: 154.9 x10_2/uL
  KIDNEY_L: 1 g
  KIDNEY_R: 1 g
  KIDNEY_TOTAL: 2 g
  LIVER: 11 g
  A/G: 1.2
  ALP: 624.6 IU/L
  ALT: 28.6 IU/L
  AST: 54.6 IU/L
  BUN: 15 mg/dL
  CRE: 0.4 mg/dL
  Ca: 10.7 mg/dL
  Cl: 103.4 meq/L
  DBIL: 0.08 mg/dL
  GLC: 175 mg/dL
  IP: 6.7 mg/dL
  K: 4.1 meq/L
  LDH: 155.2 IU/L
  Na: 140.2 meq/L
  PL: 170.6 mg/dL
  RALB: 2.7 g/dL
  TBIL: 0.1 mg/dL
  TC: 88.4 mg/dL
  TG: 161.8 mg/dL
  TP: 4.9 g/dL
  gamma-GTP: 1.2 IU/L
[…], time 7 day
  TERMINAL_BW: 251.1 g
  APTT: 17.3 s
  Bas: 0%
  Eos: 1%
  Fbg: 304.2 mg/dL
  Hb: 11.1 g/dL
  Ht: 32.3%
  Lym: 63.6%
  MCH: 22 pg
  MCHC: 34.4%
  MCV: 64.1 fL
  Mono: 3.4%
  Neu: 28.2%
  PT: 11.5 s
  Plat: 160 x10_4/uL
  RBC: 506.4 x10_4/ul
  Ret: 14.9%
  WBC: 201.4 x10_2/uL
  KIDNEY_L: 1.2 g
  KIDNEY_R: 1.1 g
  KIDNEY_TOTAL: 2.3 g
  LIVER: 12.2 g
  A/G: 1.3
  ALP: 574.4 IU/L
  ALT: 29.6 IU/L
  AST: 60.6 IU/L
  BUN: 15.8 mg/dL
  CRE: 0.4 mg/dL
  Ca: 10.3 mg/dL
  Cl: 103.6 meq/L
  DBIL: 0.084 mg/dL
  GLC: 197.2 mg/dL
  IP: 7.3 mg/dL
  K: 3.9 meq/L
  LDH: 227.8 IU/L
  Na: 140.6 meq/L
  PL: 150.4 mg/dL
  RALB: 2.9 g/dL
  TBIL: 0.1 mg/dL
  TC: 79.4 mg/dL
  TG: 136.4 mg/dL
  TP: 5 g/dL
  gamma-GTP: 1 IU/L
[…], time 14 day
  TERMINAL_BW: 275.2 g
  APTT: 19.6 s
  Bas: 0%
  Eos: 1%
  Fbg: 291.8 mg/dL
  Hb: 11.2 g/dL
  Ht: 33.5%
  Lym: 56.8%
  MCH: 23.9 pg
  MCHC: 33.2%
  MCV: 71.9 fL
  Mono: 2.8%
  Neu: 37.2%
  PT: 11.9 s
  Plat: 200.5 x10_4/uL
  RBC: 466.8 x10_4/ul
  Ret: 18.8%
  WBC: 198.5 x10_2/uL
  KIDNEY_L: 1.2 g
  KIDNEY_R: 1.2 g
  KIDNEY_TOTAL: 2.4 g
  LIVER: 13.3 g
  A/G: 1.2
  ALP: 476.5 IU/L
  ALT: 30 IU/L
  AST: 57.2 IU/L
  BUN: 19.2 mg/dL
  CRE: 0.5 mg/dL
  Ca: 10.4 mg/dL
  Cl: 104 meq/L
  DBIL: 0.1 mg/dL
  GLC: 187.5 mg/dL
  IP: 6.5 mg/dL
  K: 4.4 meq/L
  LDH: 145.2 IU/L
  Na: 141.5 meq/L
  PL: 162.2 mg/dL
  RALB: 2.9 g/dL
  TBIL: 0.1 mg/dL
  TC: 78 mg/dL
  TG: 170.2 mg/dL
  TP: 5.2 g/dL
  gamma-GTP: 1.8 IU/L
[…], time 28 day
  TERMINAL_BW: 342.8 g
  APTT: 19 s
  Bas: 0%
  Eos: 0.8%
  Fbg: 318 mg/dL
  Hb: 10 g/dL
  Ht: 32.3%
  Lym: 54.2%
  MCH: 21.1 pg
  MCHC: 30.8%
  MCV: 68.5 fL
  Mono: 2.8%
  Neu: 39.2%
  PT: 11.6 s
  Plat: 186.5 x10_4/uL
  RBC: 473 x10_4/ul
  Ret: 22.3%
  WBC: 274.1 x10_2/uL
  KIDNEY_L: 1.4 g
  KIDNEY_R: 1.4 g
  KIDNEY_TOTAL: 2.8 g
  LIVER: 15.2 g
  A/G: 1.2
  ALP: 382.8 IU/L
  ALT: 30.8 IU/L
  AST: 68.2 IU/L
  BUN: 20.5 mg/dL
  CRE: 0.5 mg/dL
  Ca: 10.4 mg/dL
  Cl: 104.2 meq/L
  DBIL: 0.1 mg/dL
  GLC: 190.5 mg/dL
  IP: 6.6 mg/dL
  K: 3.7 meq/L
  LDH: 166.2 IU/L
  Na: 141.2 meq/L
  PL: 176.8 mg/dL
  RALB: 2.9 g/dL
  TBIL: 0.2 mg/dL
  TC: 87.2 mg/dL
  TG: 212 mg/dL
  TP: 5.3 g/dL
  gamma-GTP: 2 IU/L
